Reference: article PMC10746543, “Design principles for cyclin K molecular glue degraders” (Nature Chemical Biology, 2023)
“And” between values parts separate entries of the source, which are not always exact repeats. Equal values may be shown once. Read-outs that look alike come from different tables or passages of the source. Blank lines part the entries; values can stand above or below the molecule they belong to.

What was measured:
CDK12–cyclin K and DDB1 = biological target: T1, CDK12–cyclin K and DDB1 (Homo sapiens, UniProt Q16531+Q9NYV4, K965R); experiment: TR-FRET ternary complex formation assay (compound titration); format: binding; conditions: for TR-FRET signal at compound concentration: replicate titrations
T1 construct: His6–CDK12 (a.a. 713–1,052); full-length or beta-propeller B domain deletion (ΔBPB: a.a. 396–705 deleted) constructs of His6–DDB1ΔBPB, StrepII–Avi–DDB1, or His6–Spy–DDB1; made in house; host or cells: Trichoplusia ni High Five insect cells (baculovirus)
T1 sequence (Q9NYV4 713-1052 K965R): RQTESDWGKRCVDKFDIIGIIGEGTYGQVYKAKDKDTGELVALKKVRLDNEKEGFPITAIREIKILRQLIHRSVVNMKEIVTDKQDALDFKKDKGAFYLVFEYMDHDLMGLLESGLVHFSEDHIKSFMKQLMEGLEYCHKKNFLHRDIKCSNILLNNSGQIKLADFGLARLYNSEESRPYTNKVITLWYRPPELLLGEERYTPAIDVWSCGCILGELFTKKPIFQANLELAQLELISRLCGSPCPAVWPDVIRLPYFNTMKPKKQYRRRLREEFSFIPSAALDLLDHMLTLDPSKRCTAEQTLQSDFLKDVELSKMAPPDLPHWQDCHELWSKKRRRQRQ
T1 sequence (O75909 1-267 partner): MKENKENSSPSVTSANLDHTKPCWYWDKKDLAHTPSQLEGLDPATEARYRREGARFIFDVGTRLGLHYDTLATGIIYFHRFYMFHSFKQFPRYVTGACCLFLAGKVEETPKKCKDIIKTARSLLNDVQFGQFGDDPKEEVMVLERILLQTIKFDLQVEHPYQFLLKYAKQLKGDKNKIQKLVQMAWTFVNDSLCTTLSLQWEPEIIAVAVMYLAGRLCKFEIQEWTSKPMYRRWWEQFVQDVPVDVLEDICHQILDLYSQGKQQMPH
T1 sequence (Q16531 whole entry): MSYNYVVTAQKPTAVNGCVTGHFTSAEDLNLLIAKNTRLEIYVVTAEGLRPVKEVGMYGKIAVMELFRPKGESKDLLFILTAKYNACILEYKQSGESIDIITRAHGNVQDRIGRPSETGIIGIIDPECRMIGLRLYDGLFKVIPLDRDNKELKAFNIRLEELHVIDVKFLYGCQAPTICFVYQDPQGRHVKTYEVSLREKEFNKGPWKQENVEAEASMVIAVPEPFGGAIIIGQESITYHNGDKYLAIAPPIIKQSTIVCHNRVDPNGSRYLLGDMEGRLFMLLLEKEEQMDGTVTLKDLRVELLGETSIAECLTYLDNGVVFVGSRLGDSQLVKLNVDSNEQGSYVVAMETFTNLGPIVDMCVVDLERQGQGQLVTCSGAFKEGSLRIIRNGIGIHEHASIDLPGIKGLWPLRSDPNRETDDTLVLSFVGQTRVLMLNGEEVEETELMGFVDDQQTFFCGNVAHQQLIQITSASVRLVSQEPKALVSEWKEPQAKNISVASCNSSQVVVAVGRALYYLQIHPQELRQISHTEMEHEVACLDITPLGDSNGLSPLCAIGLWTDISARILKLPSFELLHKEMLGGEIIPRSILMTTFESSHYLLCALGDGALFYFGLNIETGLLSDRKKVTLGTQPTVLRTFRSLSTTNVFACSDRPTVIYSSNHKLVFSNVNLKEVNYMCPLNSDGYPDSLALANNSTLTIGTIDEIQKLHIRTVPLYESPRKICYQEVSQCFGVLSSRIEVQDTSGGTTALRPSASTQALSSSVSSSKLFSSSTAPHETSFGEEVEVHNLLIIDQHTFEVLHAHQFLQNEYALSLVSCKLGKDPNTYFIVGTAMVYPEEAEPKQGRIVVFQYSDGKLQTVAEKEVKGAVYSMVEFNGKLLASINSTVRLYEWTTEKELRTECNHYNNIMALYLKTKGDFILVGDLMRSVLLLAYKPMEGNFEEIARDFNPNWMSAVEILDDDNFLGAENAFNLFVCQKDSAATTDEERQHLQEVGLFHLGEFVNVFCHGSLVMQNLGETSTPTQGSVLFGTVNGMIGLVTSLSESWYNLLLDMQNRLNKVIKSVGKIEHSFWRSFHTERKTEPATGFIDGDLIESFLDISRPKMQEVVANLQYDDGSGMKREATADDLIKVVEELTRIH
Outline: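 Delayed (70 μs) time-resolved read; FRET computed as 520 nm over 490 nm emission.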

HEK293T cells = experiment: Drug sensitivity assay (CellTiter-Glo viability) with or without MLN4924 pretreatment; format: cell-based, human; conditions: for EC50: Homo sapiens, HEK-293T; for Toxicity rescue: MLN4924-mediated cytotoxicity rescue, 10 µM used where n.d.
Outline: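 Viability of HEK293T–Cas9 cells was compared after 3-day drug treatment with or without 100 nM MLN4924 pretreatment (2 h, versus DMSO). Values are CellTiter-Glo signals relative to DMSO controls.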

[1] = test system: cyclin K–eGFP degradation reporter; experiment: Cyclin K reporter stability analysis (dual-color cyclin K–eGFP reporter); format: cell-based, human
Protocol: HEK293T–Cas9 cells expressing the cyclin K–eGFP degradation reporter were resuspended at 1 × 10^6 ml^−1 and 50 µl of cell suspension was seeded in non-cell-culture-treated 384-well plates. Shortly after, cells were treated with drug or DMSO for 5 h. […] The fluorescent signal was quantified by flow cytometry (LSRFortessa flow cytometer, BD Biosciences). Using FlowJo (flow cytometry analysis software, BD Biosciences), the geometric mean of the eGFP and mCherry fluorescent signal for round and mCherry-positive cells was calculated. The ratio of eGFP to mCherry was normalized to the average of three DMSO-treated controls.

[2] = compound concentration 0.468 nM
[3] = compound concentration 7.92001 nM
[4] = compound concentration 15.84 nM
[5] = compound concentration 30.96 nM
[6] = compound concentration 62.6401 nM
[7] = compound concentration 125.28 nM
[8] = compound concentration 244.8 nM
[9] = compound concentration 993.601 nM
[10] = compound concentration 2001.6 nM
[11] = in vitro complex formation, 50 nM CDK12–cyclin K, 100 nM DDB1, text and figures, read-out: TR-FRET EC50
[12] = sheet MOESM7, read-out: log TR-FRET EC50 (converted)
[13] = Supplementary Table 2, HEK293T viability, 72 h, compound alone, read-out: Cellular assays EC50
[14] = compound concentration 79.2001 nM
[15] = compound concentration 158.4 nM
[16] = compound concentration 309.6 nM
[17] = compound concentration 626.401 nM
[18] = compound concentration 1252.8 nM
[19] = compound concentration 9936.01 nM
[20] = compound concentration 20016 nM

TR-FRET signal (CDK12–cyclin K and DDB1; [2]): 0.2538 and 0.248 and 0.2145 and 0.2136 | TR-FRET signal, individual replicate (CDK12–cyclin K and DDB1; [2]): 0.2538 and 0.248 and 0.2145 and 0.2136 | TR-FRET signal at compound concentration (CDK12–cyclin K and DDB1; [2]): 0.2538 and 0.248 and 0.2145 and 0.2136 | TR-FRET signal (CDK12–cyclin K and DDB1; compound concentration 2.16 nM): 0.2768 and 0.2874 and 0.2634 and 0.2686 | TR-FRET signal, individual replicate (CDK12–cyclin K and DDB1; compound concentration 2.16 nM): 0.2768 and 0.2874 and 0.2634 and 0.2686 | TR-FRET signal at compound concentration (CDK12–cyclin K and DDB1; compound concentration 2.16 nM): 0.2768 and 0.2874 and 0.2634 and 0.2686 | TR-FRET signal (CDK12–cyclin K and DDB1; compound concentration 3.6 nM): 0.3502 and 0.3555 and 0.3511 and 0.3733 | TR-FRET signal, individual replicate (CDK12–cyclin K and DDB1; compound concentration 3.6 nM): 0.3502 and 0.3555 and 0.3511 and 0.3733 | TR-FRET signal at compound concentration (CDK12–cyclin K and DDB1; compound concentration 3.6 nM): 0.3502 and 0.3555 and 0.3511 and 0.3733 | TR-FRET signal (CDK12–cyclin K and DDB1; [3]): 0.4902 and 0.4911 and 0.5114 and 0.5651 | TR-FRET signal, individual replicate (CDK12–cyclin K and DDB1; [3]): 0.4902 and 0.4911 and 0.5114 and 0.5651 | TR-FRET signal at compound concentration (CDK12–cyclin K and DDB1; [3]): 0.4902 and 0.4911 and 0.5114 and 0.5651 | TR-FRET signal (CDK12–cyclin K and DDB1; [4]): 0.7316 and 0.7507 and 0.8127 and 0.857 | TR-FRET signal, individual replicate (CDK12–cyclin K and DDB1; [4]): 0.7316 and 0.7507 and 0.8127 and 0.857 | TR-FRET signal at compound concentration (CDK12–cyclin K and DDB1; [4]): 0.7316 and 0.7507 and 0.8127 and 0.857 | TR-FRET signal (CDK12–cyclin K and DDB1; [5]): 1.126 and 1.191 and 1.297 and 1.247 | TR-FRET signal, individual replicate (CDK12–cyclin K and DDB1; [5]): 1.126 and 1.191 and 1.297 and 1.247 | TR-FRET signal at compound concentration (CDK12–cyclin K and DDB1; [5]): 1.126 and 1.191 and 1.297 and 1.247 | TR-FRET signal (CDK12–cyclin K and DDB1; [6]): 1.6143 and 1.736 and 1.841 and 1.867 | TR-FRET signal, individual replicate (CDK12–cyclin K and DDB1; [6]): 1.6143 and 1.736 and 1.841 and 1.867 | TR-FRET signal at compound concentration (CDK12–cyclin K and DDB1; [6]): 1.6143 and 1.736 and 1.841 and 1.867 | TR-FRET signal (CDK12–cyclin K and DDB1; [7]): 2.093 and 2.298 and 2.427 and 2.467 | TR-FRET signal, individual replicate (CDK12–cyclin K and DDB1; [7]): 2.093 and 2.298 and 2.427 and 2.467 | TR-FRET signal at compound concentration (CDK12–cyclin K and DDB1; [7]): 2.093 and 2.298 and 2.427 and 2.467 | TR-FRET signal (CDK12–cyclin K and DDB1; [8]): 2.523 and 2.773 and 2.7872 and 2.833 | TR-FRET signal, individual replicate (CDK12–cyclin K and DDB1; [8]): 2.523 and 2.773 and 2.7872 and 2.833 | TR-FRET signal at compound concentration (CDK12–cyclin K and DDB1; [8]): 2.523 and 2.773 and 2.7872 and 2.833 | TR-FRET signal (CDK12–cyclin K and DDB1; [9]): 2.957 and 3.301 and 3.125 and 3.145 | TR-FRET signal, individual replicate (CDK12–cyclin K and DDB1; [9]): 2.957 and 3.301 and 3.125 and 3.145 | TR-FRET signal at compound concentration (CDK12–cyclin K and DDB1; [9]): 2.957 and 3.301 and 3.125 and 3.145 | TR-FRET signal (CDK12–cyclin K and DDB1; [10]): 3.117 and 3.31 and 3.185 and 3.127 | TR-FRET signal, individual replicate (CDK12–cyclin K and DDB1; [10]): 3.117 and 3.31 and 3.185 and 3.127 | TR-FRET signal at compound concentration (CDK12–cyclin K and DDB1; [10]): 3.117 and 3.31 and 3.185 and 3.127 | EC50 (CDK12–cyclin K and DDB1; [11]): 60 nM | EC50 (CDK12–cyclin K and DDB1; [12]): 60.3 nM | EC50 (CDK12–cyclin K and DDB1; source data sheet correlations, read-out: TR-FRET EC50): 60.3 nM | DC50 ([1]; source data sheet correlations, read-out: DC50): 724 nM
SMILES: CC[C@H](CO)Nc1nc(NCc2ccc3ccccc3c2)c2ncn(C(C)C)c2n1 [DS08]
EC50 (HEK293T cells; Supplementary Fig. 5, HEK293T, CellTiter Glo, 72h, read-out: Viability EC50, no MLN4924): 3380 nM | EC50 (HEK293T cells; [13]): 3500 nM | Toxicity rescue (HEK293T cells; Supplementary Table 2): 186%

EC50 (CDK12–cyclin K and DDB1; Supplementary Table 2, read-out: TR-FRET EC50 TR-FRET): 349 nM | fold lower affinity than DS11 (CDK12–cyclin K and DDB1; TR-FRET complex formation): 5-10 fold | TR-FRET signal (CDK12–cyclin K and DDB1; compound concentration 4.68 nM): 0.1538 and 0.1597 | TR-FRET signal at compound concentration (CDK12–cyclin K and DDB1; compound concentration 4.68 nM): 0.1538 and 0.1597 | TR-FRET signal (CDK12–cyclin K and DDB1; compound concentration 21.6 nM): 0.2215 and 0.2268 | TR-FRET signal at compound concentration (CDK12–cyclin K and DDB1; compound concentration 21.6 nM): 0.2215 and 0.2268 | TR-FRET signal (CDK12–cyclin K and DDB1; compound concentration 36 nM): 0.3624 and 0.3872 | TR-FRET signal at compound concentration (CDK12–cyclin K and DDB1; compound concentration 36 nM): 0.3624 and 0.3872 | TR-FRET signal (CDK12–cyclin K and DDB1; [14]): 0.5721 and 0.6282 | TR-FRET signal at compound concentration (CDK12–cyclin K and DDB1; [14]): 0.5721 and 0.6282 | TR-FRET signal (CDK12–cyclin K and DDB1; [15]): 0.8913 and 0.9385 | TR-FRET signal at compound concentration (CDK12–cyclin K and DDB1; [15]): 0.8913 and 0.9385 | TR-FRET signal (CDK12–cyclin K and DDB1; [16]): 1.311 and 1.295 | TR-FRET signal at compound concentration (CDK12–cyclin K and DDB1; [16]): 1.311 and 1.295 | TR-FRET signal (CDK12–cyclin K and DDB1; [17]): 1.632 and 1.6565 | TR-FRET signal at compound concentration (CDK12–cyclin K and DDB1; [17]): 1.632 and 1.6565 | TR-FRET signal (CDK12–cyclin K and DDB1; [18]): 1.8858 and 2.021 | TR-FRET signal at compound concentration (CDK12–cyclin K and DDB1; [18]): 1.8858 and 2.021 | TR-FRET signal (CDK12–cyclin K and DDB1; compound concentration 2448 nM): 2.206 and 2.209 | TR-FRET signal at compound concentration (CDK12–cyclin K and DDB1; compound concentration 2448 nM): 2.206 and 2.209 | TR-FRET signal (CDK12–cyclin K and DDB1; [19]): 2.4811 and 2.469 | TR-FRET signal at compound concentration (CDK12–cyclin K and DDB1; [19]): 2.4811 and 2.469 | TR-FRET signal (CDK12–cyclin K and DDB1; [20]): 2.543 and 2.456 | TR-FRET signal at compound concentration (CDK12–cyclin K and DDB1; [20]): 2.543 and 2.456 | EC50 (CDK12–cyclin K and DDB1; [11]): 349 ± 15 nM | EC50 (CDK12–cyclin K and DDB1; [12]): 349 nM | DC50 ([1]; Supplementary Table 2, HEK293T cycK-eGFP reporter, 5 h, read-out: Cellular assays DC50): > 10000 nM
SMILES: CC[C@H](CO)Nc1nc(NCCCCc2ccccc2)c2ncn(C(C)C)c2n1 [DS09]
EC50 (HEK293T cells; [13]): > 10000 nM | Toxicity rescue (HEK293T cells; Supplementary Table 2): 0%
